Measured values taken from PubChem BioAssay (NCI).
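GI50 is the concentration that inhibits growth by half. TGI is the concentration that stops growth completely.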

Assays:
Assay in all cases: NCI anticancer screen, dose series, 384-well format
NCI-H226 lung = tested on: NCI-H226 lung
NCI-H23 lung = tested on: NCI-H23 lung
NCI-H322M lung = tested on: NCI-H322M lung
NCI-H522 lung = tested on: NCI-H522 lung
NCI/ADR-RES ovarian = tested on: NCI/ADR-RES ovarian
OVCAR-3 ovarian = tested on: OVCAR-3 ovarian
OVCAR-4 ovarian = tested on: OVCAR-4 ovarian
OVCAR-5 ovarian = tested on: OVCAR-5 ovarian
OVCAR-8 ovarian = tested on: OVCAR-8 ovarian
PC-3 prostate = tested on: PC-3 prostate
RPMI-8226 leukemia = tested on: RPMI-8226 leukemia
RXF 393 renal = tested on: RXF 393 renal
SF-268 CNS = tested on: SF-268 CNS
SF-295 CNS = tested on: SF-295 CNS
SF-539 CNS = tested on: SF-539 CNS
SK-MEL-2 melanoma = tested on: SK-MEL-2 melanoma
SK-MEL-28 melanoma = tested on: SK-MEL-28 melanoma
SK-OV-3 ovarian = tested on: SK-OV-3 ovarian
SN12C renal = tested on: SN12C renal
SNB-19 CNS = tested on: SNB-19 CNS
SNB-75 CNS = tested on: SNB-75 CNS
SW-620 colon = tested on: SW-620 colon
T-47D breast = tested on: T-47D breast
TK-10 renal = tested on: TK-10 renal
U251 glioblastoma = tested on: U251 glioblastoma
UACC-257 melanoma = tested on: UACC-257 melanoma
UACC-62 melanoma = tested on: UACC-62 melanoma
UO-31 renal = tested on: UO-31 renal

## Cn1c(CCCC(=O)O)nc2cc(N(CCCl)CCCl)ccc21
NCI-H226 lung
  TGI: > 100 µM
NCI-H23 lung
  GI50: 60.3 µM
  TGI: > 100 µM
NCI-H322M lung
  GI50: > 100 µM
  TGI: > 100 µM
NCI-H522 lung
  GI50: 39.3 µM
  TGI: > 100 µM
NCI/ADR-RES ovarian
  GI50: > 100 µM
  TGI: > 100 µM
OVCAR-3 ovarian
  GI50: > 100 µM
  TGI: > 100 µM
OVCAR-4 ovarian
  GI50: > 100 µM
  TGI: > 100 µM
OVCAR-5 ovarian
  GI50: > 100 µM
  TGI: > 100 µM
OVCAR-8 ovarian
  GI50: 69.8 µM
  TGI: > 100 µM
PC-3 prostate
  GI50: > 100 µM
  TGI: > 100 µM
RPMI-8226 leukemia
  GI50: 39.8 µM
  TGI: > 100 µM
RXF 393 renal
  GI50: 41.7 µM
  TGI: > 100 µM
SF-268 CNS
  GI50: 35.6 µM
  TGI: > 100 µM
SF-295 CNS
  GI50: > 100 µM
  TGI: > 100 µM
SF-539 CNS
  GI50: 50.4 µM
  TGI: > 100 µM
SK-MEL-2 melanoma
  GI50: > 100 µM
  TGI: > 100 µM
SK-MEL-28 melanoma
  GI50: > 100 µM
  TGI: > 100 µM
SK-OV-3 ovarian
  GI50: > 100 µM
  TGI: > 100 µM
SN12C renal
  GI50: 34.7 µM
  TGI: > 100 µM
SNB-19 CNS
  GI50: > 100 µM
  TGI: > 100 µM
SNB-75 CNS
  GI50: > 100 µM
  TGI: > 100 µM
SW-620 colon
  GI50: 72.7 µM
  TGI: > 100 µM
T-47D breast
  GI50: > 100 µM
  TGI: > 100 µM
TK-10 renal
  GI50: > 100 µM
  TGI: > 100 µM
U251 glioblastoma
  GI50: 47.1 µM
  TGI: > 100 µM
UACC-257 melanoma
  GI50: > 100 µM
  TGI: > 100 µM
UACC-62 melanoma
  GI50: 31.8 µM
  TGI: > 100 µM
UO-31 renal
  GI50: > 100 µM
  TGI: > 100 µM
